Results taken from patent US20260209223A1, “FGFR3 INHIBITOR COMPOUNDS” (TYRA BIOSCIENCES, INC., priority 2022, published 2026).

Columns and labels:
[1] = target: T1, FGFR2 (Homo sapiens, UniProt P21802); assay: Kinase binding assay (Kd), kinase-tagged T7 phage, affinity beads, qPCR; conditions: in vitro binding assay, 11-point 3-fold dilution series
T1 construct: made in house; host or cells: E. coli (BL21-derived) infected with T7 phage
Method: (§1) Kinase-tagged T7 phage strains were prepared in an E. coli host derived from the BL21 strain. E. coli were grown to log-phase and infected with T7 phage and incubated with shaking at 32° C. until lysis. The lysates were centrifuged and filtered to remove cell debris. Streptavidin-coated magnetic beads were treated with biotinylated small molecule ligands for 30 minutes at room temperature to generate affinity resins for kinase assays. The liganded beads were blocked with excess biotin and washed with blocking buffer SeaBlock (Pierce), 1% BSA, 0.05% Tween 20, 1 mM DTT to remove unbound ligand and to reduce non-specific binding. Binding reactions were assembled by combining kinases, liganded affinity beads, and test compounds in 1× binding buffer (20% SeaBlock, 0.17×PBS, 0.05% Tween 20, 6 mM DTT).
(§2) Test compounds were prepared as 111× stocks in 100% DMSO. Kds were determined using an 11-point 3-fold compound dilution series with three DMSO control points. All compounds for Kd measurements are distributed by acoustic transfer (non-contact dispensing) in 100% DMSO. The compounds were then diluted directly into the assays such that the final concentration of DMSO was 0.9%. All reactions performed in polypropylene 384-well plate. Each was a final volume of 0.02 ml. The assay plates were incubated at room temperature with shaking for 1 hour and the affinity beads were washed with wash buffer (1×PBS, 0.05% Tween 20). The beads were then re-suspended in elution buffer (1×PBS, 0.05% Tween 20, 0.5 μM non-biotinylated affinity ligand) and incubated at room temperature with shaking for 30 minutes. The kinase concentration in the eluates was measured by qPCR.
(§3) Binding constants were calculated with a standard dose-response curve using the Hill equation: […]
(§4) The Hill Slope was set to −1. Curves were fitted using a non-linear least square fit with the Levenberg-Marquardt algorithm.

[2] = target: T2, FGFR3 (Homo sapiens, UniProt P22607); assay: as above; conditions: in vitro binding assay, 11-point 3-fold dilution series
T2 construct: made in house; host or cells: E. coli (BL21-derived) infected with T7 phage
Method: as §1, §2, §3, §4

[3] = target: T3, FGFR1 (Homo sapiens, UniProt P11362); assay: as above; conditions: in vitro binding assay, 11-point 3-fold dilution series
T3 construct: made in house; host or cells: E. coli (BL21-derived) infected with T7 phage
Method: as §1, §2, §3, §4

[4] = target: T4, FGFR3 (V555M) (Homo sapiens, UniProt P22607, V555M); assay: as above; conditions: in vitro binding assay, 11-point 3-fold dilution series
T4 construct: made in house; host or cells: E. coli (BL21-derived) infected with T7 phage
Method: as §1, §2, §3, §4

[5] = target: T5, FGFR4 (Homo sapiens, UniProt P22455); assay: as above; conditions: in vitro binding assay, 11-point 3-fold dilution series
T5 construct: made in house; host or cells: E. coli (BL21-derived) infected with T7 phage
Method: as §1, §2, §3, §4

[6] = target: T6, Ba/F3 ETV5-FGFR4 (Homo sapiens, UniProt P22455); assay: Ba/F3 cell viability assay (CellTiter-Glo 2.0); assay type: cell-based; conditions: Ba/F3 cell data, ETV5-FGFR4 fusion, 48 hours
T6 construct: host or cells: Ba/F3; the other entry of the earlier key: ETV5 (P41161, ETS translocation variant 5)
Description: Experimental Purpose: Recombinant kinase fusions are transduced into parental Ba/F3, which becomes dependent upon this constitutive kinase activity for IL3-independent survival. Inhibition of kinase activity leads to cell death, which is monitored using CellTiter-Glo® 2.0 (Promega) which measures intracellular ATP concentration that in turn serves as a marker for viability. BCR-FGFR1 Ba/F3, BCR-FGFR2 and FGFR3-BAIAP2L1 Ba/F3 were obtained from Advanced Cellular Dynamics (Seattle, WA). ETV6-FGFR4 was obtained from Kyinno (Waltham, MA).
Cell Viability Assay Procedure: Cell Titer-Glo® 2.0 Luminescent cell viability assay reagent was purchased from Promega (Madison, WI). Ba/F3 cell lines were cultured in RPMI1640 media supplemented with 10% fetal bovine serum. Cultures were maintained at 37° C. in a humidified atmosphere of 5% CO2 and 95% air.
Cells were plated in 96-well clear bottom/white plates (Corning #3903) at 10,000 cells/well in 100 μl of media, incubated overnight. The next day, test compound DMSO stock solutions were made at 10 mM and 2 μM final concentration. Compounds were then added to cells in a 9-dose, 10-fold dilution series starting at 30 μM with an HP 300e Digital Dispenser (each dose was applied in triplicate). DMSO was backfilled to each well up to 301 nL total volume of test compound+DMSO, and a total of 301 nL DMSO was added to a control/no test compound well in triplicate. The cells in cell culture plates were incubated with the compounds at 37° C. and 5% CO2 for 48 hours. Then 50 μl of Cell Titer Glo 2.0 reagent was added to each well of the cell culture plates. The contents were covered from light and mixed on an orbital shaker at room temperature for 10 min. Luminescence was recorded by a Synergy H1 Microplate Reader (Biotek, Winooski, VT). Cells were assessed as a percentage of DMSO only treated control cells. Curves were plotted and IC50 values were calculated using the GraphPad Prism 8 program based on a sigmoidal dose-response equation (4 parameter).

[7] = target: T7, Ba/F3 BCR-FGFR1 (Homo sapiens, UniProt P11362); assay: Ba/F3 cell viability assay (CellTiter-Glo 2.0); assay type: cell-based; conditions: Ba/F3 cell data, BCR-FGFR1 fusion, 48 hours
T7 construct: BCR (fusion partner); host or cells: Ba/F3; the other entry of the earlier key: BCR (P11274, Breakpoint cluster region protein)

[8] = target: T8, Ba/F3 FGFR3-BAIAP2L1 (Homo sapiens, UniProt P22607); assay: Ba/F3 cell viability assay (CellTiter-Glo 2.0); assay type: cell-based; conditions: Ba/F3 cell data, FGFR3-BAIAP2L1 fusion, 48 hours
T8 construct: BAIAP2L1 (fusion partner, Q9UHR4 if human); host or cells: Ba/F3; the other entry of the earlier key: BAIAP2L1 (Q9UHR4, BAR/IMD domain-containing adapter protein 2-like 1)

[9] = target: T9, Ba/F3 BCR-FGFR2 (Homo sapiens, UniProt P21802); assay: Ba/F3 cell viability assay (CellTiter-Glo 2.0); assay type: cell-based; conditions: Ba/F3 cell data, BCR-FGFR2 fusion, 48 hours
T9 construct: BCR (fusion partner); host or cells: Ba/F3; the other entry of the earlier key: BCR (P11274, Breakpoint cluster region protein)
T9 sequence (P21802 481-770 limits assumed): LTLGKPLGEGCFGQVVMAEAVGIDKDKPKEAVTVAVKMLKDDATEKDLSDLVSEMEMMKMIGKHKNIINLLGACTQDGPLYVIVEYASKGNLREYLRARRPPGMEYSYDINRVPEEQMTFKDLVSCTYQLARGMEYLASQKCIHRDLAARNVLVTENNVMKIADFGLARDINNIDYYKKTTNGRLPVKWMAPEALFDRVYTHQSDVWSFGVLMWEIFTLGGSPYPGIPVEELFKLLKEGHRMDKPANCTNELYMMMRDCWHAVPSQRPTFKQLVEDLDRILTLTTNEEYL

T6 sequence (P22455 467-755 limits assumed): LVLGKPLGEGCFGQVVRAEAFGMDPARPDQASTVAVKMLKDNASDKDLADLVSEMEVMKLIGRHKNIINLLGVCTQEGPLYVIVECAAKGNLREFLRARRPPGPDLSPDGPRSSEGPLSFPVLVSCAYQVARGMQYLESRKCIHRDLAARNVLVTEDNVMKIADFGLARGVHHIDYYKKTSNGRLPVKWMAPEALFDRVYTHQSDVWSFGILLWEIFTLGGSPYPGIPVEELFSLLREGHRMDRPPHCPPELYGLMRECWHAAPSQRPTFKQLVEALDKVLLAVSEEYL
T4 sequence (P22607 23-806 V555M): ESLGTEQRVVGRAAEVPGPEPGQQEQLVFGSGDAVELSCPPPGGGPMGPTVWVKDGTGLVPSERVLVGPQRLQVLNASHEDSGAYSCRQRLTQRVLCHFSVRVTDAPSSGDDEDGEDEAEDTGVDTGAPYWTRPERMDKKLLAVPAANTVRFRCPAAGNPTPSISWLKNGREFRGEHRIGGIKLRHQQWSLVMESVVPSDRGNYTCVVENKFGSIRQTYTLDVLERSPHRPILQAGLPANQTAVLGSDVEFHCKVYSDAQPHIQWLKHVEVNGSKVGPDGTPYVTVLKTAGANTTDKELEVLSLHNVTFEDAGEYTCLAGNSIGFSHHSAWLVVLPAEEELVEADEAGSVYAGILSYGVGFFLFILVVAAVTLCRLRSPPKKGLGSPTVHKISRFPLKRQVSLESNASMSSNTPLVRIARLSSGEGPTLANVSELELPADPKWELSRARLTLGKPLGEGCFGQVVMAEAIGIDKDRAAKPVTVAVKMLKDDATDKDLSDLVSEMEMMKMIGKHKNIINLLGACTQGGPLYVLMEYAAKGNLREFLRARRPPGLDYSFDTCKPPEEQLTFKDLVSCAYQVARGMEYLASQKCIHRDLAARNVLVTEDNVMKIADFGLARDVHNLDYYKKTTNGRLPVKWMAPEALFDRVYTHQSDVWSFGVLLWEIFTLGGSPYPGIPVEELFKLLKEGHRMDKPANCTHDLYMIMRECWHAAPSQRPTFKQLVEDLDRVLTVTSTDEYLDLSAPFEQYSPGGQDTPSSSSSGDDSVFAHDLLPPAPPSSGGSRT
T3 sequence (P11362 22-822): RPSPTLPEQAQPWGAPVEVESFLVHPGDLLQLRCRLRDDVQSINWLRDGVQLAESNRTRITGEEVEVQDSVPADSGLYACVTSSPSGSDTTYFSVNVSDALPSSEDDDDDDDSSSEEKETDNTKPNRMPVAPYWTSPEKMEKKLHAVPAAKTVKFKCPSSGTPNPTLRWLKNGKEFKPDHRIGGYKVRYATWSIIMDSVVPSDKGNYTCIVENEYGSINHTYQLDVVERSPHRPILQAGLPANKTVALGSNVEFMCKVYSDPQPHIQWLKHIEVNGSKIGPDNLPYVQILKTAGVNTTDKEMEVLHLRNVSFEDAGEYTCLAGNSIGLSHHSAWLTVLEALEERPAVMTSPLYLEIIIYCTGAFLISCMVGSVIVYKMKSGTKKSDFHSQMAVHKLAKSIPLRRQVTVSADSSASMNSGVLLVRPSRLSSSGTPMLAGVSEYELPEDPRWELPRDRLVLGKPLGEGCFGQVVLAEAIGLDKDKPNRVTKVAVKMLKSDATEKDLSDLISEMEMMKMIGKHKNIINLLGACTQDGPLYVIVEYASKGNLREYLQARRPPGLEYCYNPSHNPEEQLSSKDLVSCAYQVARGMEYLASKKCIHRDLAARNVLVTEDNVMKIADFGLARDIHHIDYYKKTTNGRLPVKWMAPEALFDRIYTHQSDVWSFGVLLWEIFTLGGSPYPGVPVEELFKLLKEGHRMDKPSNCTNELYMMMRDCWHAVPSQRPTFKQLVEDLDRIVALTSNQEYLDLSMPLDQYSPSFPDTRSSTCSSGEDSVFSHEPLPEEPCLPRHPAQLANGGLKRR
T1 sequence (P21802 22-821): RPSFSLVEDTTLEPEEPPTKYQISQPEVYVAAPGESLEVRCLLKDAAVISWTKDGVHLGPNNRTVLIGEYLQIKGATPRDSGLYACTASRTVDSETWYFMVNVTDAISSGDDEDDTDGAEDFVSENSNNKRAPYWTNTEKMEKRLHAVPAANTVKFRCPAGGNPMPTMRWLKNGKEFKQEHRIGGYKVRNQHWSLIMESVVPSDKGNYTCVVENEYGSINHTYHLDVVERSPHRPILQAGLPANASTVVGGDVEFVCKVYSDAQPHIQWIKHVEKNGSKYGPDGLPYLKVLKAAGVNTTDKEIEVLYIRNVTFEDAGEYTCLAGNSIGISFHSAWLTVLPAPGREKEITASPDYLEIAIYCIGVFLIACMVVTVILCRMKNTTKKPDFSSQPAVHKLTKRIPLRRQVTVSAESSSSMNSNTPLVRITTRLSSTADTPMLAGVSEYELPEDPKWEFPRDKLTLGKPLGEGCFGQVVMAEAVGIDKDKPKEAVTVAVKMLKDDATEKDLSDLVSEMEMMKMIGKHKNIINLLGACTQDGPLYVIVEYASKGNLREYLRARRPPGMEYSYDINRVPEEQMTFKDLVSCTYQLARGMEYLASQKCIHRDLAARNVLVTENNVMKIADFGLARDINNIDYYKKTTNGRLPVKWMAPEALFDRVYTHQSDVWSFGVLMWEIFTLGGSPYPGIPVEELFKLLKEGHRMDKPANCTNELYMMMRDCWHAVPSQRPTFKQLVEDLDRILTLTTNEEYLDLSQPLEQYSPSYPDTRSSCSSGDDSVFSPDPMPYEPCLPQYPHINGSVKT
T8 sequence (P22607 397-758 limits assumed): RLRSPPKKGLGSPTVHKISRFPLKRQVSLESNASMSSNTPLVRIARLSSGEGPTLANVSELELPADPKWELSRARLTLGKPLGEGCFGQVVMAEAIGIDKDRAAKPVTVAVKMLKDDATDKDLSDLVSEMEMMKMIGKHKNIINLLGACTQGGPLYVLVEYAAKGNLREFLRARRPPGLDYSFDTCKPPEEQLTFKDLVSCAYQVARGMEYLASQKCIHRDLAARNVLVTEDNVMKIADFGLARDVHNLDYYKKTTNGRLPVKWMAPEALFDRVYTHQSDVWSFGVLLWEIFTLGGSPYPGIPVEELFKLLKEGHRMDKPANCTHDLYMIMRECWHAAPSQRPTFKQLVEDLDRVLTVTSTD
T7 sequence (P11362 478-767 limits assumed): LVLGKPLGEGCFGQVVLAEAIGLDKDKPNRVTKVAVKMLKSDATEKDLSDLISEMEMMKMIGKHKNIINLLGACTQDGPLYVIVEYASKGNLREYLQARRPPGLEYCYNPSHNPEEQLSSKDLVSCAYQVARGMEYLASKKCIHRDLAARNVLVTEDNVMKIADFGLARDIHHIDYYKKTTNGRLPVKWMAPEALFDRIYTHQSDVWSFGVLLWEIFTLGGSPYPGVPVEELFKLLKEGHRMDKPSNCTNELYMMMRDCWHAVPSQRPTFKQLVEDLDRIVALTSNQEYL
T2 sequence (P22607 23-806): as the sequence (P22607 23-806 V555M) above, with M533V counted along it
T5 sequence (P22455 22-802): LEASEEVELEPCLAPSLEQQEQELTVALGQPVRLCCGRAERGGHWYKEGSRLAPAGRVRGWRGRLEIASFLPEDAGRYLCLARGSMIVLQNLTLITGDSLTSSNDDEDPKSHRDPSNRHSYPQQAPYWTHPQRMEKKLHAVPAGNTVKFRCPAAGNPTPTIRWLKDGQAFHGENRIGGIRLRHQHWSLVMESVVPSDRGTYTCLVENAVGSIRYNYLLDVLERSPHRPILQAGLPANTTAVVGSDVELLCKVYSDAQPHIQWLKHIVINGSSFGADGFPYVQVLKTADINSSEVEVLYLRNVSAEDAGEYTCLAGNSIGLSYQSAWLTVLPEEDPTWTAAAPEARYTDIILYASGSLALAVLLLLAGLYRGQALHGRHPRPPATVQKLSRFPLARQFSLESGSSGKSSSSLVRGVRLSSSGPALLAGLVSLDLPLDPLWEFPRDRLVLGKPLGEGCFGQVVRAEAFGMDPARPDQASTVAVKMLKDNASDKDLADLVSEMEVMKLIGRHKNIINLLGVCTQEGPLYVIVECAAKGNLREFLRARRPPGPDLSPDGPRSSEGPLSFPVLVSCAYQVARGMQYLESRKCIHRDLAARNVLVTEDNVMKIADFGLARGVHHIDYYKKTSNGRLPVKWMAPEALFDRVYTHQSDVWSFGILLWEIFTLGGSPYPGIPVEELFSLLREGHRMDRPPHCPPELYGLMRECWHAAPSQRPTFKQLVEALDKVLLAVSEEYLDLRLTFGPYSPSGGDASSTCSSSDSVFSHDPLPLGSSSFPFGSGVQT

| Kd [1] [nM] | Kd [2] [nM] | Kd [3] [nM] | Kd [4] [nM] | Kd [5] [nM] | SMILES | Kd [6] [nM] | Kd [7] [nM] | Kd [8] [nM] | Kd [9] [nM] |
| --- | --- | --- | --- | --- | --- | --- | --- | --- | --- |
| – | 0.1 to 100 | 100 to 250 | – | – | C=CC(=O)N1CCC2(CC1)CC(n1ncc(-c3cc(OC(CO)c4ccccn4)c4c(Cl)cnn4c3)c1C)C2 (single isomer, unassigned) [Example 6] | 250 to 1000 | 250 to 1000 | 0.1 to 100 | 250 to 1000 |
| 100 to 250 | 100 to 250 | 250 to 1000 | 250 to 1000 | 250 to 1000 | C=CC(=O)N1CCC2(CC1)CC(n1ncc(-c3cc(O[C@@H](CO)c4ccccn4)c4c(C#N)cnn4c3)c1C)C2 [Example 7, (R)-6-(1-(7-acryloyl-7-azaspiro[3.5]nonan-2-yl)-5-methyl-1H-pyrazol-4-yl)-4-(2-hydroxy-1-(pyridin-2-yl)ethoxy)pyrazolo[1,5-a]pyridine-3-carbonitrile] | 250 to 1000 | ≥ 1000 | 100 to 250 | 250 to 1000 |
| 250 to 1000 | 250 to 1000 | 250 to 1000 | 250 to 1000 | – | C=CC(=O)N1CCC2(CC1)CC(n1ncc(-c3cc(O[C@@H](CO)c4ccc(F)cn4)c4c(C#N)cnn4c3)c1C)C2 [Example 10, (R)-6-(1-(7-acryloyl-7-azaspiro[3.5]nonan-2-yl)-5-methyl-1H-pyrazol-4-yl)-4-(1-(5-fluoropyridin-2-yl)-2-hydroxyethoxy)pyrazolo[1,5-a]pyridine-3-carbonitrile] | ≥ 1000 | ≥ 1000 | 250 to 1000 | ≥ 1000 |
| – | 250 to 1000 | ≥ 1000 | – | – | C=CC(=O)N1CCC2(CC1)CC(n1ncc(-c3cc(O[C@@H](CO)c4ccccn4)c4c(Cl)cnn4c3)c1C)C2 [Example 5, (R)-1-(2-(4-(3-chloro-4-(2-hydroxy-1-(pyridin-2-yl)ethoxy)pyrazolo[1,5-a]pyridin-6-yl)-5-methyl-1H-pyrazol-1-yl)-7-azaspiro[3.5]nonan-7-yl)prop-2-en-1-one] | ≥ 1000 | ≥ 1000 | 250 to 1000 | ≥ 1000 |
| 100 to 250 | 100 to 250 | 250 to 1000 | 100 to 250 | 250 to 1000 | C=CC(=O)N1CCC2(CC1)CC(n1ncc(-c3cc(OC(CO)c4ccnn4C)c4c(C#N)cnn4c3)c1C)C2 (centres unmarked) [Example 11, 6-(1-(7-acryloyl-7-azaspiro[3.5]nonan-2-yl)-5-methyl-1H-pyrazol-4-yl)-4-(2-hydroxy-1-(1-methyl-1H-pyrazol-5-yl)ethoxy)pyrazolo[1,5-a]pyridine-3-carbonitrile] | ≥ 1000 | ≥ 1000 | 250 to 1000 | ≥ 1000 |

Continued, compound first:

| SMILES | Kd [1] [nM] | Kd [2] [nM] | Kd [3] [nM] | Kd [4] [nM] | Kd [5] [nM] | Kd [6] [nM] | Kd [7] [nM] | Kd [8] [nM] | Kd [9] [nM] |
| --- | --- | --- | --- | --- | --- | --- | --- | --- | --- |
| CCC(=O)N1CC(C(=O)N2CCC(n3nnc(-c4cc(OC(CO)c5ccccn5)c5c(C#N)cnn5c4)c3C)CC2)C1 (centres unmarked) [Example 16, 4-(2-hydroxy-1-(pyridin-2-yl)ethoxy)-6-(5-methyl-1-(1-(1-propionylazetidine-3-carbonyl)piperidin-4-yl)-1H-1,2,3-triazol-4-yl)pyrazolo[1,5-a]pyridine-3-carbonitrile] | 0.1 to 100 | 0.1 to 100 | 100 to 250 | 0.1 to 100 | 0.1 to 100 | – | – | – | – |
| CCC(=O)N1CCC2(CC1)CC(n1cc(-c3cc(O[C@H](CO)c4ccc(F)cn4)c4c(C#N)cnn4c3)cn1)C2 [Example 28, (S)-4-(1-(5-fluoropyridin-2-yl)-2-hydroxyethoxy)-6-(1-(7-propionyl-7-azaspiro[3.5]nonan-2-yl)-1H-pyrazol-4-yl)pyrazolo[1,5-a]pyridine-3-carbonitrile] | 0.1 to 100 | 0.1 to 100 | 0.1 to 100 | 0.1 to 100 | 0.1 to 100 | 100 to 250 | 100 to 250 | 0.1 to 100 | 0.1 to 100 |
| C#CC(=O)N1CC(OC)(C(=O)N2CCC(n3nnc(-c4cc(OC(CO)c5ccccn5)c5c(C#N)cnn5c4)c3C)CC2)C1 (centres unmarked) [Example 24, 4-(2-hydroxy-1-(pyridin-2-yl)ethoxy)-6-(1-(1-(3-methoxy-1-propioloylazetidine-3-carbonyl)piperidin-4-yl)-5-methyl-1H-1,2,3-triazol-4-yl)pyrazolo[1,5-a]pyridine-3-carbonitrile] | 0.1 to 100 | 0.1 to 100 | 0.1 to 100 | 0.1 to 100 | 0.1 to 100 | – | – | – | – |
| C=CC(=O)N1CCC2(CC1)CC(n1nnc(-c3cc(O[C@H](C)c4ccccn4)c4c(Cl)cnn4c3)c1C)C2 [Example 4, (R)-1-(2-(4-(3-chloro-4-(1-(pyridin-2-yl)ethoxy)-pyrazolo[1,5-a]pyridin-6-yl)-5-methyl-1H-1,2,3-triazol-1-yl)-7-azaspiro[3.5]nonan-7-yl)prop-2-en-1-one] | – | 0.1 to 100 | 0.1 to 100 | – | – | 250 to 1000 | 100 to 250 | 0.1 to 100 | 100 to 250 |
| C=CC(=O)N1CCC2(CC1)CC(n1cc(-c3cc(O[C@@H](CO)c4ccc(F)cn4)c4c(C#N)cnn4c3)cn1)C2 [Example 25, (R)-6-(1-(7-acryloyl-7-azaspiro[3.5]nonan-2-yl)-1H-pyrazol-4-yl)-4-(1-(5-fluoropyridin-2-yl)-2-hydroxyethoxy)pyrazolo[1,5-a]pyridine-3-carbonitrile] | 100 to 250 | 100 to 250 | 100 to 250 | 250 to 1000 | 250 to 1000 | – | – | – | – |
| CCC(=O)N1CCC2(CC1)CC(n1cc(-c3cc(O[C@@H](CO)c4ccc(F)cn4)c4c(C#N)cnn4c3)cn1)C2 [Example 26, (R)-4-(1-(5-fluoropyridin-2-yl)-2-hydroxyethoxy)-6-(1-(7-propionyl-7-azaspiro[3.5]nonan-2-yl)-1H-pyrazol-4-yl)pyrazolo[1,5-a]pyridine-3-carbonitrile] | 100 to 250 | 100 to 250 | 100 to 250 | 250 to 1000 | 250 to 1000 | – | – | – | – |
| C=CC(=O)N1CC(F)(C(=O)N2CCC(n3nnc(-c4cc(O[C@@H](CO)c5ccccn5)c5c(C#N)cnn5c4)c3C)CC2)C1 (single isomer, unassigned) [Example 19] | 250 to 1000 | 100 to 250 | ≥ 1000 | 250 to 1000 | ≥ 1000 | – | – | – | – |
| C=CC(=O)N1CC(C(=O)N2CCC(n3nnc(-c4cc(O[C@@H](CO)c5ccccn5)c5c(C#N)cnn5c4)c3C)CC2)C1 [Example 17, (R)-6-(1-(1-(1-acryloylazetidine-3-carbonyl)piperidin-4-yl)-5-methyl-1H-1,2,3-triazol-4-yl)-4-(2-hydroxy-1-(pyridin-2-yl)ethoxy)pyrazolo[1,5-a]pyridine-3-carbonitrile] | 250 to 1000 | 100 to 250 | ≥ 1000 | 250 to 1000 | ≥ 1000 | – | – | – | – |
